Structures can show the parent of a compound that is named as a salt.
Columns and labels:
Type in all cases: biochemical
[1] = target: Human Thrombin (Homo sapiens, UniProt P00734); test: Inhibition of the amidase activity of thrombin (Kass); conditions: chromogenic substrate N-benzoyl-Phe-Val-Arg-p-nitroanilide; mean over range of concentrations
[2] = system: Human Plasma; test: Human plasma anticoagulation, thrombin time (TT); conditions: concentration required to double the clotting time
Method: (§1) Dog plasma and rat plasma is obtained from conscious mixed-breed hounds (either sex, Hazelton-LRE, Kalamazoo, Mich., U.S.A.) or from anesthetized male Sprague-Dawley rats (Harlan Sprague-Dawley, Inc., Indianapolis, Ind., U.S.A.) by venipuncture into 3.8 percent citrate. Fibrinogen is prepared from in-date ACD human blood as the fraction I-2 according to previous procedures and specifications. […] Human fibrinogen is also purchased as 98 percent pure/plasmin free from American Diagnostica, Greenwich, Conn. Coagulation reagents ACTIN, Thromboplastin, and Human plasma are from Baxter Healthcare Corp., Dade Division, Miami, Fla. Bovine thrombin from Parke-Davis ([…], Mich.) is used for coagulation assays in plasma.
(§2) Coagulation assay procedures are as previously described. […] A CoAScreener coagulation instrument (American LABor, Inc.) is used for all coagulation assay measurements. The prothrombin time (PT) is measured by adding 0.05 mL saline and 0.05 mL Thromboplastin-C reagent to 0.05 mL test plasma. The activated partial thromboplastin time (APTT) is measured by incubation of 0.05 mL test plasma with 0.05 mL Actin reagent for 120 seconds followed by 0.05 mL CaCl2 (0.02M). The thrombin time (TT) is measured by adding 0.05 mL saline and 0.05 mL thrombin (10 NIH units/mL) to 0.05 mL test plasma. The compounds of Formula I are added to human or animal plasma over a wide range of concentrations to determine prolongation effects on the APTT, PT, and TT assays. Linear extrapolations are performed to estimate the concentrations required to double the clotting time for each assay.

[3] = system: Human Plasma; test: Human plasma anticoagulation, activated partial thromboplastin time (APTT); conditions: concentration required to double the clotting time
Method: as §1, §2

[4] = system: Human Plasma; test: Human plasma anticoagulation, prothrombin time (PT); conditions: concentration required to double the clotting time
Method: as §1, §2

[5] = target: T1, Bovine trypsin (Bos taurus, UniProt P00760); test: Kass, trypsin chromogenic substrate assay; conditions: substrate N-Benzoyl-Phe-Val-Arg-p-nitroanilide
T1 construct: Bovine trypsin is purchased from Worthington Biochemicals; purchased Worthington Biochemicals, Freehold, N.J
T1 sequence (P00760 24-246): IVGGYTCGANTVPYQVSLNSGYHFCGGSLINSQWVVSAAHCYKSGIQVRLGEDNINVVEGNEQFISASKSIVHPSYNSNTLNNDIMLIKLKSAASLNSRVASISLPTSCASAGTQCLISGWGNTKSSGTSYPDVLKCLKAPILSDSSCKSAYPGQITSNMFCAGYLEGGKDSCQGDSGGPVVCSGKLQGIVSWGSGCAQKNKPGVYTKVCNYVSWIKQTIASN
Method: By substantially following the procedures described above for human thrombin, and using other human blood coagulation system serine proteases and proteases of the fibrinolytic system with the appropriate chromogenic substrates, identified below, selectivity of the compounds of the present invention with respect to the coagulation factor serine proteases and with respect to the fibrinolytic system serine proteases are evaluated as well as their substantial lack of interference with serine proteases of the fibrinolytic system.
Chromogenic substrates: N-Benzoyl-Ile-Glu-Gly-Arg-p-nitroanilide (for factor Xa); N-Cbz-D-Arg-Gly-Arg-p-nitroanilide (for factor IXa assay as the factor Xa substrate); Pyroglutamyl-Pro-Arg-p-nitroanilide (for Factor XIa and for aPC); H-D-Pro-Phe-Arg-p-nitroanilide (for factor XIIa); and Pyroglutamyl-Gly-Arg-p-nitroanilide (for urokinase); are purchased from KabiVirum, Stockholm, Sweden, or from Midwest Biotech, Fishers, Ind. Bovine trypsin is purchased from Worthington Biochemicals, Freehold, N.J., and human plasma kallikrein from Kabi Vitrum, Stockholm, Sweden. […] N-Benzoyl-Phe-Val-Arg-p-nitroanilide, the substrate for human thrombin and for trypsin, is synthesized according to procedures described above for the compounds of the present invention, using known methods of peptide coupling from commercially available reactants or purchased from Midwest Biotech, Fishers, Ind.

| Compound | Kass × 10^6 (L/mole) Human Thrombin [1] | Human Plasma Anticoagulation 2x Clotting time TT [2] [ng/mL] | Human Plasma Anticoagulation 2x Clotting time APTT [3] | Human Plasma Anticoagulation 2x Clotting time PT [4] | Kass × 10^6 (L/mole) Trypsin [5] |
| --- | --- | --- | --- | --- | --- |
| CCS(=O)(=O)N[C@H](CC1CCCCC1)C(=O)N1CCC[C@H]1C(=O)NCc1ccc(N)cc1F.Cl [Example 82, EtSO2 -D-Cha-Pro-4-NHCH2 -3-F-C6 H3 NH2.HCl] | 5.0 × 10^6 L/mole | 130 | 3,800 ng/mL | 3,000 ng/mL | – |
| 1-Piq-Pro-p-NHCH2 C6 H4 C(NH)NH2.2HCl [Example 18] | – | 7 | – | – | – |
| Cl.N=C(N)c1cc(F)c(CNC(=O)[C@@H]2CCCN2C(=O)[C@@H](CC2CCCCC2)NCC(=O)O)c(F)c1 [Example 72, HO2 CCH2 -D-Cha-Pro-4-NHCH2 -3,5-F2 -benzamidine.HCl] | 2,300 × 10^6 L/mole | 1 | 160 ng/mL | 160 ng/mL | 280 × 10^6 L/mole |
| Cl.N=C(N)C1=CNC(CNC(=O)[C@@H]2CCCN2C(=O)[C@@H](CC2CCCCC2)NCC(=O)O)CC1 (stereo partly drawn) [Example 68, HO2 CCH2 -D-Cha-Pro-2-NHCH2 -5-amidino-5,6-dehydro-piperidine.HCl] | 600 × 10^6 L/mole | 4. | 49 ng/mL | 190 ng/mL | – |
| N=C(N)c1ccc(CNC(=O)[C@@H]2CCCN2C(=O)[C@@H](CC2CCCCC2)NCCCC(=O)O)cc1 [Example 85, HOOCCH2 CH2 CH2 -D-Cha-Pro-p-NHCH2 C6 H4 C(NH)NH2.HCl] | 265 × 10^6 L/mole | 4.9 | 100 ng/mL | 197 ng/mL | 30.8 × 10^6 L/mole |
| Cl.N=C(N)c1ccc(CNC(=O)[C@@H]2CCCN2C(=O)[C@@H](CC2CCCCC2)NCC(=O)O)c(F)c1 [Example 71, HO2 CCH2 -D-Cha-Pro-4-NHCH2 -3-F-benzamidine.HCl] | 1,400 × 10^6 L/mole | 1 | 89 ng/mL | 150 ng/mL | 240. × 10^6 L/mole |
| Nc1ccc(CNC(=O)[C@@H]2CCCN2C(=O)[C@@H](CC2CCCCC2)NCC(=O)O)cc1F [Example 77, HO2 CCH2 -D-Cha-Pro-4-NHCH2 -2-F-aniline.HCl] | 11 × 10^6 L/mole | 53 | 1,600 ng/mL | 890 ng/mL | – |
| Cl.N=C(N)c1cc(CNC(=O)[C@@H]2CCCN2C(=O)[C@@H](CC2CCCCC2)NCC(=O)O)cs1 [Example 65, HO2 CCH2 -D-Cha-Pro-4-NHCH2 -2-amidinothiophene.HCl] | 4,500 × 10^6 L/mole | 1 | 48 ng/mL | – | – |
| Nc1ccc(CNC(=O)[C@@H]2CCCN2C(=O)[C@@H](CC2CCCCC2)NCC(=O)O)cc1 [Example 62, HO2 CCH2 -D-Cha-Pro-4-NHCH2 C6 H4 NH2.HCl] | 7.6 × 10^6 L/mole | 54 | – | – | – |
| Cl.Nc1cc(CCNC(=O)[C@@H]2CCCN2C(=O)[C@@H](CC2CCCCC2)NCC(=O)O)ccn1 [Example 76, HO2 CCH2 -D-Cha-Pro-4-NHCH2 CH2 -2-aminopyridine.HCl] | 12 × 10^6 L/mole | 29 | 490 ng/mL | 560 ng/mL | 0.36 × 10^6 L/mole |
| Cl.N=C(N)c1ccc(CNC(=O)[C@@H]2CCCN2C(=O)[C@@H](CC2CCCCC2)NCC(=O)O)nn1 [Example 69, HO2 CCH2 -D-Cha-Pro-3-NHCH2 -6-amidinopyridazine.HCl] | 340 × 10^6 L/mole | 5. | 110 ng/mL | 220 ng/mL | 3.7 × 10^6 L/mole |
| Cl.Nc1cc(CNC(=O)[C@@H]2CCCN2C(=O)[C@@H](CC2CCCCC2)NCC(=O)O)ccn1 [Example 73, HO2 CCH2 -D-Cha-Pro-4-NHCH2 -2-aminopyridine.HCl] | 28 × 10^6 L/mole | 21 | 340 ng/mL | 330 ng/mL | – |
| CCS(=O)(=O)N[C@H](CC1CCCCC1)C(=O)N1CCC[C@H]1C(=O)NCc1ccc(CN)cc1 [Example 81, EtSO2 -D-Cha-Pro-4-NHCH2 C6 H4 CH2 NH2.HCl] | 5.3 × 10^6 L/mole | 110 | 1,500 ng/mL | 2,700 ng/mL | 2.1 × 10^6 L/mole |
| NCc1ccc(CNC(=O)[C@@H]2CCCN2C(=O)[C@@H](CC2CCCCC2)NCC(=O)O)cc1 [Example 78, HO2 CCH2 -D-Cha-Pro-4-NHCH2 C6 H4 CH2 NH2.HCl] | 11 × 10^6 L/mole | 46 | 430 ng/mL | 760 ng/mL | 8.6 × 10^6 L/mole |
| Cl.Nc1ccc(CNC(=O)[C@@H]2CCCN2C(=O)[C@@H](CC2CCCCC2)NCC(=O)O)cn1 [Example 74, HO2 CCH2 -D-Cha-Pro-5-NHCH2 -2-aminopyridine.HCl] | 29 × 10^6 L/mole | 20 | 420 ng/mL | 350 ng/mL | – |
| HOOCCH2 -D-Phe-Pro-p-NHCH2 C6 H4 C(NH)NH2.HCl [Example 46] | – | 2. | – | – | – |
| CCS(=O)(=O)N[C@@H](C(=O)N1[C@H](C(=O)NCc2ccc(C(=N)N)cc2)C[C@@H]2CCCC[C@@H]21)c1ccccc1 (relative stereo) [Example 44, EtSO2 -Phg-cis-Ohi-p-NHCH2 C6 H4 C(NH)NH2.HCl] | – | 4. | – | – | – |
| Cl.Nc1ccc(CCNC(=O)[C@@H]2CCCN2C(=O)[C@@H](CC2CCCCC2)NCC(=O)O)cn1 [Example 75, HO2 CCH2 -D-Cha-Pro-5-NHCH2 CH2 -2-aminopyridine.HCl] | 0.45 × 10^6 L/mole | – | – | – | – |
| N=C(N)c1ccc(CNC(=O)[C@@H]2CCCN2C(=O)[C@H](NCC(=O)O)C2CCCCC2)cc1 [Example 86, HOOCCH2 -D-Chg-Pro-p-NHCH2 C6 H4 C(NH)NH2.HCl] | – | 4 | – | – | – |
| N=C(N)C1CCC(CNC(=O)[C@@H]2CCCN2C(=O)[C@@H](CC2CCCCC2)NCC(=O)O)NC1 (stereo partly drawn) [Example 67, HO2 CCH2 -D-Cha-Pro-2-NHCH2 -5-amidinopiperidine.HCl] | 11 × 10^6 L/mole | 34. | 1,800 ng/mL | 1,300 ng/mL | – |
| CS(=O)(=O)CC(=O)N[C@H](CC1CCCCC1)C(=O)N1CCC[C@H]1C(=O)NCc1ccc(C(=N)N)cc1 [Example 92, MeSO2 CH2 CO-D-Cha-Pro-P-NHCH2 C6 H4 C(NH)NH2.HCl] | 130 × 10^6 L/mole | 8.9 | 210 ng/mL | 340 ng/mL | 7.7 × 10^6 L/mole |
| CCS(=O)(=O)N[C@H](CC1CCCCC1)C(=O)N1CCC[C@H]1C(=O)NCc1ccc(C(=N)N)cc1.Cl [Example 80, EtSO2 -D-Cha-Pro-4-NHCH2 C6 H4 C(NH)NH2.HCl] | – | 4 | 40 ng/mL | 130 ng/mL | 90. × 10^6 L/mole |
| EtSO2 -D-Phe-Pro-p-NHCH2 -C6 H4 C(=NH)NH2.HCl [Example 23] | – | 7 | – | – | – |
| Nc1ccc(CCNC(=O)[C@@H]2CCCN2C(=O)[C@@H](CC2CCCCC2)NCC(=O)O)cc1 [Example 63, HO2 CCH2 -D-Cha-Pro-4-NHCH2 CH2 C6 H4 NH2.HCl] | 0.31 × 10^6 L/mole | 680 | – | – | – |

From patent publication US5705487A, “Antithrombotic agents” (priority 1995, dated 1998)
